Measured values published in patent publication US5055396A, “Diagnostic methods and systems for quantifying APO AI” (Scripps Clinic and Research Foundation, priority 1987, dated 1991).

How the values were obtained:
[1] = target: MAB AI-18; test: Competitive RIA: inhibition of MAB AI-18 binding to solid-phase Apo AI/HDL by competitor antigen or peptide; parameters: species or system mouse; details: competitive RIA; MAB AI-18 ascites 1:1.25×10^5; solid-phase Apo AI/HDL
Experimental: One hundred ul of PBS (0.15M NaCl, 0.01M NaPO4, pH 7.2) containing 10 ug/ml Apo AI/HDL were admixed to the wells of microtiter plates. The plates were maintained for 1 hour at 20 degrees C. on a rotating platform to allow the Apo AI/HDL to adhere to the wells and form solid supports. After aspirating excess liquid from the wells, 200 ul of block solution (3% BSA, 3% NGS in PBS) was admixed to each well, and the wells were maintained for 30 minutes at 20 degrees C. on a rotating platform. Subsequently, the blocking solution was removed by aspiration and the wells were washed 3 times with SPRIA buffer.
In control wells either competing antigen or antibody was replaced by PBS containing 3% BSA.
The immunoreaction admixtures were maintained about 16 hours at 4 degrees C. on a rotating platform to permit formation of solid-phase immunoreaction products. […] The labeling immunoreaction admixtures so formed were maintained for 4 hours at 4 degrees C. on a rotating platform.
[…] of serial 3 fold dilutions of each sample prepared in Table 3 were admixed as competitor in the RIA described in this Example.
Fifty microliters of the stock of 2 fold serial dilutions of the stock were used as competitor in the RIA described in this Example.

[2] = test system: MAB AI-18; test: Solid-phase polypeptide competitive ELISA (AI90-105 coated wells, HRP-type labeled MAB AI-18); assay type: binding, mouse; details: reference material: pool of about 20 normal plasmas; FIG. 8
Experimental: Six hundred microliters of 25 mM NH4 HCO3, pH 9.6, containing polypeptide AI90-105 at a concentration of 5 mg/ml were admixed with 119.4 ml of 0.1M NaHC)3, pH 9.0, to form a peptide coating solution. One hundred fifty microliters of the coating solution were admixed into the wells of flexible polyvinyl chloride microtiter plates (Nunc, Source). The wells were then maintained about 16-20 hours at 4 degrees C. to permit the peptide to adsorb onto (coat) the walls of the wells. After removing the peptide coating solution by shaking, the wells were washed once with 350 ul of rinsing buffer (PBS containing 1 gm/l BSA, 0.5 ml/l Tween 20, and 2 ul/l aprotinin). Excess protein binding sites were blocked by admixing 200 ul of blocking buffer (PBS containing 3% BSA) into each well, maintaining the wells for 1 hour at 20 degrees C., removing the blocking buffer by shaking, and then washing the wells 3 times as previously described. […]
Two hundred microliters of OPD substrate were then admixed into each well to form a developing-reaction admixture, which was maintained for 30 minutes at about 20 degrees C. Subsequently, 50 ul of 4N H2 SO4 were admixed into each well to stop the developing-reaction, and the resulting solution were assayed for absorbance at 490 nanometers using a microtiter plate reader (Dynatech). […]

**Q.** With LEEVKAKVQPYLDDFQ [AI90-105] as the sequence, how does the “Immunoreactivity (concentration of peptide competitor required to achieve a B/Bo value of 0.5)” value [1] read?
**A.** 30 ug protein/ml

**Q.** And the “immunoreactivity of MAB AI-18 for peptide compared with reference material” value [2]?
**A.** equivalent immunoreactivities
